According to patent US12077503B2, “Substituted cyclic amides and their use as herbicides” (FMC CORPORATION, priority 2015, dated 2024):

Experiments:
Type in all cases: in vivo
[1] = test system: velvetleaf (Abutilon theophrasti); assay: Test G Post-Emergence Protocol; details: Abutilon theophrasti, post-emergence, 312 h; for pest or weed control at 15.625 g/ha: 15.625 g ai/ha, evaluated after 13 days (100=total damage to plant; 0=no damage to plant), read-out: Velvetleaf damage rating; for pest or weed control at 62.5 g/ha: 62.5 g ai/ha, read-out: Velvetleaf damage rating (100=total damage to plant; 0=no damage to plant); for pest or weed control at 62.5 g/ha / pest or weed control at 250 g/ha: evaluated after 13 days; for pest or weed control at 250 g/ha: 250 g ai/ha, read-out: damage to plant, Velvetleaf (100=total damage to plant; 0=no damage to plant)
Method in brief: (§1)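 Sow in soil; grow 8 d (24/16 °C, 14 h light, 65% humidity); spray 15.625/62.5/250 g/ha in acetone:water 50:50 + 0.5% Tween 20; grow on, water twice daily; score damage 0–100 at 13 d.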

[2] = test system: redroot pigweed (Amaranthus retroflexus); assay: Test G Post-Emergence Protocol; details: Amaranthus retroflexus, post-emergence, 312 h; for pest or weed control at 15.625 g/ha: 15.625 g ai/ha, evaluated after 13 days (100=total damage to plant; 0=no damage to plant), read-out: Pigweed, Redroot damage rating; for pest or weed control at 62.5 g/ha: 62.5 g ai/ha, read-out: Pigweed, Redroot damage rating (100=total damage to plant; 0=no damage to plant); for pest or weed control at 62.5 g/ha / pest or weed control at 250 g/ha: evaluated after 13 days; for pest or weed control at 250 g/ha: 250 g ai/ha, read-out: damage to plant, Pigweed, Redroot (100=total damage to plant; 0=no damage to plant)
Method in brief: as §1

[3] = test system: barnyardgrass (Echinochloa crus-galli); assay: Test G Post-Emergence Protocol; details: Echinochloa crus-galli, post-emergence, 312 h; for pest or weed control at 15.625 g/ha: 15.625 g ai/ha, evaluated after 13 days (100=total damage to plant; 0=no damage to plant), read-out: Barnyardgrass damage rating; for pest or weed control at 62.5 g/ha: 62.5 g ai/ha, read-out: Barnyardgrass damage rating (100=total damage to plant; 0=no damage to plant); for pest or weed control at 62.5 g/ha / pest or weed control at 250 g/ha: evaluated after 13 days; for pest or weed control at 250 g/ha: 250 g ai/ha, read-out: damage to plant, Barnyardgrass (100=total damage to plant; 0=no damage to plant)
Method in brief: as §1

[4] = test system: corn (Zea mays); assay: Test G Post-Emergence Protocol; details: Zea mays, post-emergence, 312 h; for plant injury at 15.625 g/ha: 15.625 g ai/ha, evaluated after 13 days (100=total damage to plant; 0=no damage to plant), read-out: Corn damage rating; for plant injury at 62.5 g/ha: 62.5 g ai/ha, read-out: Corn damage rating (100=total damage to plant; 0=no damage to plant); for plant injury at 62.5 g/ha / plant injury at 250 g/ha: evaluated after 13 days; for plant injury at 250 g/ha: 250 g ai/ha, read-out: damage to plant, Corn (100=total damage to plant; 0=no damage to plant)
Method in brief: as §1

[5] = test system: giant foxtail (Setaria faberi); assay: Test G Post-Emergence Protocol; details: Setaria faberi, post-emergence, 312 h; for pest or weed control at 15.625 g/ha: 15.625 g ai/ha, evaluated after 13 days (100=total damage to plant; 0=no damage to plant), read-out: Foxtail, Giant damage rating; for pest or weed control at 62.5 g/ha: 62.5 g ai/ha, read-out: Foxtail, Giant damage rating (100=total damage to plant; 0=no damage to plant); for pest or weed control at 62.5 g/ha / pest or weed control at 250 g/ha: evaluated after 13 days; for pest or weed control at 250 g/ha: 250 g ai/ha, read-out: damage to plant, Foxtail, Giant (100=total damage to plant; 0=no damage to plant)
Method in brief: as §1

[6] = test system: ivy-leaved morning glory (Ipomoea hederacea); assay: Test G Post-Emergence Protocol; details: Ipomoea, post-emergence, 312 h; for pest or weed control at 15.625 g/ha: 15.625 g ai/ha, evaluated after 13 days (100=total damage to plant; 0=no damage to plant), read-out: Morningglory, Ivy-leaved damage rating; for pest or weed control at 62.5 g/ha: 62.5 g ai/ha, read-out: Morningglory, Ivy-leaved damage rating (100=total damage to plant; 0=no damage to plant); for pest or weed control at 62.5 g/ha / pest or weed control at 250 g/ha: evaluated after 13 days; for pest or weed control at 250 g/ha: 250 g ai/ha, read-out: damage to plant, Morningglory, Ivy-leaved (100=total damage to plant; 0=no damage to plant)
Method in brief: as §1

[7] = test system: velvetleaf (Abutilon theophrasti); assay: Test G Pre-Emergence Protocol; details: Abutilon theophrasti, pre-emergence, 312 h, evaluated after 13 days; for pest or weed control at 15.625 g/ha: 15.625 g ai/ha; for pest or weed control at 15.625 g/ha / pest or weed control at 250 g/ha: read-out: Velvetleaf damage rating (100=total damage to plant; 0=no damage to plant); for pest or weed control at 62.5 g/ha: 62.5 g ai/ha, 100=total damage to plant, 0=no damage to plant, read-out: plant damage rating, Velvetleaf; for pest or weed control at 250 g/ha: 250 g ai/ha
Method in brief: (§2)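 Herbicidal effect was rated 13 days post-application on a scale where 100 equals total damage. Spraying took place the day after sowing, using 15.625, 62.5 or 250 g/ha of compound in a 50:50 acetone/water solution with 0.5% Tween 20.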

[8] = test system: redroot pigweed (Amaranthus retroflexus); assay: Test G Pre-Emergence Protocol; details: Amaranthus retroflexus, pre-emergence, 312 h, evaluated after 13 days; for pest or weed control at 15.625 g/ha: 15.625 g ai/ha; for pest or weed control at 15.625 g/ha / pest or weed control at 250 g/ha: read-out: Pigweed, Redroot damage rating (100=total damage to plant; 0=no damage to plant); for pest or weed control at 62.5 g/ha: 62.5 g ai/ha, 100=total damage to plant, 0=no damage to plant, read-out: plant damage rating, Pigweed, Redroot; for pest or weed control at 250 g/ha: 250 g ai/ha
Method in brief: as §2

[9] = test system: barnyardgrass (Echinochloa crus-galli); assay: Test G Pre-Emergence Protocol; details: Echinochloa crus-galli, pre-emergence, 312 h, evaluated after 13 days; for pest or weed control at 15.625 g/ha: 15.625 g ai/ha, read-out: Barnyard grass damage rating (100=total damage to plant; 0=no damage to plant); for pest or weed control at 62.5 g/ha: 62.5 g ai/ha, 100=total damage to plant, 0=no damage to plant, read-out: plant damage rating, Barnyardgrass; for pest or weed control at 250 g/ha: 250 g ai/ha, read-out: Barnyardgrass damage rating (100=total damage to plant; 0=no damage to plant)
Method in brief: as §2

[10] = test system: corn (Zea mays); assay: Test G Pre-Emergence Protocol; details: Zea mays, pre-emergence, 312 h, evaluated after 13 days; for plant injury at 15.625 g/ha: 15.625 g ai/ha; for plant injury at 15.625 g/ha / plant injury at 250 g/ha: read-out: Corn damage rating (100=total damage to plant; 0=no damage to plant); for plant injury at 62.5 g/ha: 62.5 g ai/ha, 100=total damage to plant, 0=no damage to plant, read-out: plant damage rating, Corn; for plant injury at 250 g/ha: 250 g ai/ha
Method in brief: as §2

[11] = test system: giant foxtail (Setaria faberi); assay: Test G Pre-Emergence Protocol; details: Setaria faberi, pre-emergence, 312 h, evaluated after 13 days; for pest or weed control at 15.625 g/ha: 15.625 g ai/ha; for pest or weed control at 15.625 g/ha / pest or weed control at 250 g/ha: read-out: Foxtail, Giant damage rating (100=total damage to plant; 0=no damage to plant); for pest or weed control at 62.5 g/ha: 62.5 g ai/ha, 100=total damage to plant, 0=no damage to plant, read-out: plant damage rating, Foxtail, Giant; for pest or weed control at 250 g/ha: 250 g ai/ha
Method in brief: as §2

[12] = test system: ivy-leaved morning glory (Ipomoea hederacea); assay: Test G Pre-Emergence Protocol; details: Ipomoea, pre-emergence, 312 h, evaluated after 13 days; for pest or weed control at 15.625 g/ha: 15.625 g ai/ha, read-out: Morning-glory, Ivy-leaved damage rating (100=total damage to plant; 0=no damage to plant); for pest or weed control at 62.5 g/ha: 62.5 g ai/ha, 100=total damage to plant, 0=no damage to plant, read-out: plant damage rating, Morningglory, Ivy-leaved; for pest or weed control at 250 g/ha: 250 g ai/ha, read-out: Morningglory, Ivy-leaved damage rating (100=total damage to plant; 0=no damage to plant)
Method in brief: as §2

CN1C[C@@H](c2ccc(C(F)(F)F)cc2)[C@H](C(=O)Nc2ccnc(F)c2)C1=O (racemic) [Compound 1529]
0%: pest or weed control at 15.625 g/ha [1] | pest or weed control at 62.5 g/ha [1] | pest or weed control at 250 g/ha [1] | pest or weed control at 15.625 g/ha [2] | pest or weed control at 62.5 g/ha [2] | pest or weed control at 250 g/ha [2] | pest or weed control at 15.625 g/ha [3] | pest or weed control at 62.5 g/ha [3] | pest or weed control at 250 g/ha [3] | plant injury at 15.625 g/ha [4] | plant injury at 62.5 g/ha [4] | plant injury at 250 g/ha [4] | pest or weed control at 15.625 g/ha [5] | pest or weed control at 62.5 g/ha [5] | pest or weed control at 250 g/ha [5] | pest or weed control at 15.625 g/ha [6] | pest or weed control at 62.5 g/ha [6] | pest or weed control at 250 g/ha [6] | pest or weed control at 15.625 g/ha [7] | pest or weed control at 62.5 g/ha [7] | pest or weed control at 250 g/ha [7] | pest or weed control at 15.625 g/ha [8] | pest or weed control at 62.5 g/ha [8] | pest or weed control at 250 g/ha [8] | pest or weed control at 15.625 g/ha [9] | pest or weed control at 62.5 g/ha [9] | pest or weed control at 250 g/ha [9] | plant injury at 15.625 g/ha [10] | plant injury at 62.5 g/ha [10] | plant injury at 250 g/ha [10] | pest or weed control at 15.625 g/ha [11] | pest or weed control at 62.5 g/ha [11] | pest or weed control at 250 g/ha [11] | pest or weed control at 15.625 g/ha [12] | pest or weed control at 62.5 g/ha [12] | pest or weed control at 250 g/ha [12]

CN1C[C@@H](c2ccc(C(F)(F)F)cc2)[C@H](C(=O)Nc2cc(C(F)(F)F)[nH]n2)C1=O (racemic) [Compound 1530]
0%: pest or weed control at 15.625 g/ha [1] | pest or weed control at 62.5 g/ha [1] | pest or weed control at 250 g/ha [1] | pest or weed control at 15.625 g/ha [2] | pest or weed control at 62.5 g/ha [2] | pest or weed control at 250 g/ha [2] | pest or weed control at 15.625 g/ha [3] | pest or weed control at 62.5 g/ha [3] | pest or weed control at 250 g/ha [3] | plant injury at 15.625 g/ha [4] | plant injury at 62.5 g/ha [4] | plant injury at 250 g/ha [4] | pest or weed control at 15.625 g/ha [5] | pest or weed control at 62.5 g/ha [5] | pest or weed control at 250 g/ha [5] | pest or weed control at 15.625 g/ha [6] | pest or weed control at 62.5 g/ha [6] | pest or weed control at 250 g/ha [6] | pest or weed control at 15.625 g/ha [7] | pest or weed control at 62.5 g/ha [7] | pest or weed control at 250 g/ha [7] | pest or weed control at 15.625 g/ha [8] | pest or weed control at 62.5 g/ha [8] | pest or weed control at 250 g/ha [8] | pest or weed control at 15.625 g/ha [9] | pest or weed control at 62.5 g/ha [9] | pest or weed control at 250 g/ha [9] | plant injury at 15.625 g/ha [10] | plant injury at 62.5 g/ha [10] | plant injury at 250 g/ha [10] | pest or weed control at 15.625 g/ha [11] | pest or weed control at 62.5 g/ha [11] | pest or weed control at 250 g/ha [11] | pest or weed control at 15.625 g/ha [12] | pest or weed control at 62.5 g/ha [12] | pest or weed control at 250 g/ha [12]
